Target: T1, EGFR (Homo sapiens, UniProt P00533)
T1 construct: EGFR-IN; with SHC1
Experiment: SIMPL western blot of EGFR/SHC1 interaction in cells (indirect readout of EGFR kinase activity)
Type: cell-based

T1 sequence (P00533 25-1210): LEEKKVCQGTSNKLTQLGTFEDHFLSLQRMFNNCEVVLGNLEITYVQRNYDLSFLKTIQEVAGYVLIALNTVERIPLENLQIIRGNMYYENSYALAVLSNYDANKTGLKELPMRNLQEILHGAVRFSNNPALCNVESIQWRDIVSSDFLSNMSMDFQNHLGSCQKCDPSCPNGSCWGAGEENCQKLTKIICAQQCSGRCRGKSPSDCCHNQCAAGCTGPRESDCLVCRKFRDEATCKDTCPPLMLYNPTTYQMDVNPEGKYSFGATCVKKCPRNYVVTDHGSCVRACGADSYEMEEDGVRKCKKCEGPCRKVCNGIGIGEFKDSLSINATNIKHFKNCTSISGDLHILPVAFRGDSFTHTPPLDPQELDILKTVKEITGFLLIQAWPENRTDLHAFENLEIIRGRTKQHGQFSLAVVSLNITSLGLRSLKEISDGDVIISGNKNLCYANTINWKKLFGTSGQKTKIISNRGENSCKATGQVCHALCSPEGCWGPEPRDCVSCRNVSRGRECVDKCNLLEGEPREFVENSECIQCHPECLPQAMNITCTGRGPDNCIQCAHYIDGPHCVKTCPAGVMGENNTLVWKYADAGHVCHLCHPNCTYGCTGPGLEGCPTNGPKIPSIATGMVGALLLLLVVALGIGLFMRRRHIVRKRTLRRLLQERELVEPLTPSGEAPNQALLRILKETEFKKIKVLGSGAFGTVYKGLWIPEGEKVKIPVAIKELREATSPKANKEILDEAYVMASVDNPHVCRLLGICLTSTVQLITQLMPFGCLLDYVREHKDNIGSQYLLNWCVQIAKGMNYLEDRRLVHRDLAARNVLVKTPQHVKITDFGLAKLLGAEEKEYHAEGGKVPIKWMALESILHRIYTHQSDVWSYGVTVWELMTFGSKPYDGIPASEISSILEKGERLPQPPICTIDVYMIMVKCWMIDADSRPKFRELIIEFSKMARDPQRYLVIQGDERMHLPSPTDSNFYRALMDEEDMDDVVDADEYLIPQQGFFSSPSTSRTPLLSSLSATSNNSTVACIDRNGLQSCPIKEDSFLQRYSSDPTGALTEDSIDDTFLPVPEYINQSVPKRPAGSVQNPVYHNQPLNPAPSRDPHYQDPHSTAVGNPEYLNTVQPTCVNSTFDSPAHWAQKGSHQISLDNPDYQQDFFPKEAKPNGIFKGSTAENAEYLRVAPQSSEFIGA
T1 sequence (P29353 whole entry, further chain): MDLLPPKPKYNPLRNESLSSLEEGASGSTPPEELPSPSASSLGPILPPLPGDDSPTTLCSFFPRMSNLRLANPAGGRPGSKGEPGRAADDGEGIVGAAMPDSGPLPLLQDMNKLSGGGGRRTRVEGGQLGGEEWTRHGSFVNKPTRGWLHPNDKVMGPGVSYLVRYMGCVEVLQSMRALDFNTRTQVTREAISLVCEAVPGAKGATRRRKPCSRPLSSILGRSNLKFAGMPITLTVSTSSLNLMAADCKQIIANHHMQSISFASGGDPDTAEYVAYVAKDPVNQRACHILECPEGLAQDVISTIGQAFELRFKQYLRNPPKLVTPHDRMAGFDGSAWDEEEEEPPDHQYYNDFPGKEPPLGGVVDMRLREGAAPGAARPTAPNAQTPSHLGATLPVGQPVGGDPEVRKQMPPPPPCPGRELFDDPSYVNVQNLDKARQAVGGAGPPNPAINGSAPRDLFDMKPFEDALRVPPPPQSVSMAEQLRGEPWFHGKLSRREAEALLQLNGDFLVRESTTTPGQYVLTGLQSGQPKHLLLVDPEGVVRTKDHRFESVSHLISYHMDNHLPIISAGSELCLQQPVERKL

## COc1cc2ncnc(Nc3cccc(Cl)c3)c2cc1OC [AG1478]
  SIMPL western blot of EGFR/SHC1 interaction in cells (indirect readout of EGFR k): The spliced EGFR-SHC1 band observed by western blot diminished with increasing AG1478 concentration.
